# Source: patent US20160045505A1, “COMPOUNDS AND COMPOSITIONS FOR THE TREATMENT OF PARASITIC DISEASES” (NOVARTIS AG, priority 2013, published 2016)
# Where two headings read alike, the source gives them in different places.
# Key:
# [1] = test system: Trypanosoma cruzi amastigotes (Tulahuen strain expressing Lac-Z) cultured in 3T3 fibroblast cells; assay: microbe, parasite or virus in culture; assay type: cell-based; conditions: Trypanosoma cruzi, TULAHUEN, Fibroblast
# [2] = test system: Leishmania donovani axenic amastigote parasites; assay: Leishmania donovani axenic amastigote proliferation assay (Cell TiterGlo luminescence, 2 day incubation); assay type: cell-based; conditions: Leishmania donovani, L. donovani axenic amastigotes; read-out: L. donovani amastigotes EC50
# [3] = test system: L. donovani HU3 strain in mouse peritoneal macrophages; assay: Assay for proliferation of Leishmania parasites in infected mouse peritoneal macrophages (SybrGreen staining, high-content imaging, 5 days); assay type: cell-based, Leishmania donovani; conditions: Leishmania donovani, Peritoneal macrophage, L. donovani in mouse peritoneal macrophages; read-out: L. donovani Macrophage EC50
# [4] = test system: Trypanosoma brucei Lister 427 strain, bloodstream form; assay: Assay for proliferation of kinetoplastid parasite Trypanosoma brucei (Cell Titer Glo, 48 hours); assay type: cell-based; conditions: Trypanosoma brucei, T. brucei Lister 427 bloodstream form; read-out: T. brucei EC50
# In short: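 Bloodstream-form T. brucei Lister 427 in HMI-9 medium was exposed to compound (DMSO vehicle) for 48 hours at 37° C, 5% CO2. Parasite growth was read as ATP by CellTiter-Glo luminescence, with EC50 calculated from percent inhibition.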
# [5] = T. cruzi amastigotes in 3T3 fibroblast cells, read-out: T cruzi EC50
Compound,"EC50 [1, 5]",EC50 [2],EC50 [3],EC50 [4],EC50 ([1]; read-out: T cruzi EC50 (μM))
"COCCOc1cnc2nc(-c3cc(NC(=O)c4oc(C)nc4C)ccc3F)cn2c1 [Compound 547, N-(4-fluoro-3-(6-(2-methoxyethoxy)imidazo[1,2-a]pyrimidin-2-yl)phenyl)-2,4-dimethyloxazole-5-carboxamide]",1.36 µM,856 nM,4530 nM,607 nM,
"COC(=O)c1cnc2nc(-c3cc(NC(=O)c4oc(C)nc4C)ccc3F)cn2c1 [Compound 548, methyl 2-(5-(2,4-dimethyloxazole-5-carboxamido)-2-fluorophenyl)imidazo[1,2-a]pyrimidine-6-carboxylate]",0.539 µM,651 nM,1070 nM,518 nM,
"Cc1nc(C)c(C(=O)Nc2ccc(F)c(-c3cn4cc([Si](C)(C)C)cnc4n3)c2)o1 [Compound 549, N-(4-fluoro-3-(6-(trimethylsilyl)imidazo[1,2-a]pyrimidin-2-yl)phenyl)-2,4-dimethyloxazole-5-carboxamide]",0.063 µM,133 nM,448 nM,117 nM,
"CC(C)OC(=O)N(C)c1cnc2nc(-c3cc(NC(=O)c4ccc(Cl)o4)ccc3F)cn2c1 [Compound 550, isopropyl (2-(5-(5-chlorofuran-2-carboxamido)-2-fluorophenyl)imidazo[1,2-a]pyrimidin-6-yl)(methyl)carbamate]",0.042 µM,176 nM,516 nM,78 nM,
"CC(C)OC(=O)N(C)c1cnc2nc(-c3cc(N(C)C(=O)c4ccc(Cl)o4)ccc3F)cn2c1 [Compound 551, isopropyl (2-(5-(5-chloro-N-methylfuran-2-carboxamido)-2-fluorophenyl)imidazo[1,2-a]pyrimidin-6-yl)(methyl)carbamate]",3.28 µM,11000 nM,6940 nM,9320 nM,
Cc1nc(C)c(C(=O)Nc2ccc(F)c(-c3cn4cc(N(C)C(=O)OC(C)C)cnc4n3)c2)o1 [Compound 552],0.326 µM,420 nM,967 nM,240 nM,
Cc1nc(C)c(C(=O)N(C)c2ccc(F)c(-c3cn4cc(N(C)C(=O)OC(C)C)cnc4n3)c2)o1 [Compound 553],3.11 µM,3480 nM,3610 nM,4290 nM,
COCN(C(=O)OC(C)C)c1cnc2nc(-c3cc(NC(=O)c4oc(C)nc4C)ccc3F)cn2c1 [Compound 554],1.51 µM,814 nM,1850 nM,664 nM,
COCCN(C(=O)OC(C)C)c1cnc2nc(-c3cc(NC(=O)c4oc(C)nc4C)ccc3F)cn2c1 [Compound 555],1.32 µM,3110 nM,5470 nM,1570 nM,
CCCC(=O)OCN(C(=O)OC(C)C)c1cnc2nc(-c3cc(NC(=O)c4oc(C)nc4C)ccc3F)cn2c1 [Compound 556],0.313 µM,63 nM,99 nM,70 nM,
CC(C)OC(=O)Nc1cnc2nc(-c3cc(NCC(=O)N4CCCC4)ccc3F)cn2c1 [Compound 560],,9840 nM,29700 nM,5650 nM,12.1 µM
"CC(C)OC(=O)N(C)c1cnc2nc(-c3cc(NC(=O)c4ccco4)ccc3Cl)cn2c1 [Compound 561, isopropyl (2-(2-chloro-5-(furan-2-carboxamido)phenyl)imidazo[1,2-a]pyrimidin-6-yl)(methyl)carbamate]",0.139 µM,740 nM,2140 nM,286 nM,
O=C(Nc1ccc(F)c(-c2cn3cc(OCCN4CCOCC4)cnc3n2)c1)N1CCCC1 [Compound 563],6.7 µM,14200 nM,8500 nM,> 50000 nM,
CC(C)Nc1cnc2nc(-c3cc(NC(=O)N4CCC4)ccc3F)cn2c1 [Compound 564],0.204 µM,212 nM,290 nM,56 nM,
"O=C(Nc1ccc(Cl)c(-c2cn3cc(C4=CCNCC4)cnc3n2)c1)N1CCCC1 [Compound 570, N-(4-chloro-3-(6-(1,2,3,6-tetrahydropyridin-4-yl)imidazo[1,2-a]pyrimidin-2-yl)phenyl)pyrrolidine-1-carboxamide]",1.99 µM,1820 nM,13600 nM,248 nM,
Cc1nc(C)c(C(=O)Nc2ccc(F)c(-c3cn4cc(-c5ccc[nH]5)cnc4n3)c2)o1 [Compound 573],0.462 µM,155 nM,168 nM,107 nM,
O=C(Nc1ccc(Cl)c(-c2cn3cc(-c4ccc(OC5CCNCC5)cc4)cnc3n2)c1)N1CCCC1 [Compound 574],0.436 µM,744 nM,886 nM,460 nM,
"Nc1cnc2nc(-c3cc(NC(=O)c4ccc(F)o4)ccc3Cl)cn2c1 [Compound 577, N-(3-(6-aminoimidazo[1,2-a]pyrimidin-2-yl)-4-chlorophenyl)-5-fluorofuran-2-carboxamide]",2.34 µM,2990 nM,> 50000 nM,1350 nM,
"C=Cc1cnc2nc(-c3cc(NC(=O)c4oc(C)nc4C)ccc3F)cn2c1 [Compound 581, N-(4-fluoro-3-(6-vinylimidazo[1,2-a]pyrimidin-2-yl)phenyl)-2,4-dimethyloxazole-5-carboxamide]",0.11 µM,169 nM,249 nM,101 nM,

Compound,"EC50 [1, 5]",EC50 [2],EC50 [3],EC50 [4],EC50 ([1]; read-out: T cruzi EC50 (μM))
"CCNc1cnc2nc(-c3cc(NC(=O)c4oc(C)nc4C)ccc3F)cn2c1 [Compound 582, N-(3-(6-(ethylamino)imidazo[1,2-a]pyrimidin-2-yl)-4-fluorophenyl)-2,4-dimethyloxazole-5-carboxamide]",0.466 µM,585 nM,928 nM,476 nM,
"CN(C)C(=O)Nc1ccc(F)c(-c2cn3cc(N(C)C)cnc3n2)c1 [Compound 583, 3-(3-(6-(dimethylamino)imidazo[1,2-a]pyrimidin-2-yl)-4-fluorophenyl)-1,1-dimethylurea]",0.377 µM,869 nM,1790 nM,139 nM,
"Cc1cccnc1-c1cnc2nc(-c3cc(N)ccc3F)cn2c1 [Compound 594, 4-fluoro-3-(6-(3-methylpyridin-2-yl)imidazo[1,2-a]pyrimidin-2-yl)aniline]",> 19.9 µM,> 25000 nM,> 32800 nM,> 50000 nM,
COC1CCC(C(=O)Nc2ccc(F)c(-c3cn4cc(C5CC5)cnc4n3)c2)CC1 (stereo not shown) [Compound 597],16 µM,24100 nM,17100 nM,31400 nM,
O=C(Nc1ccc(F)c(-c2cn3cc(C4CC4)cnc3n2)c1)[C@H]1CC[C@@H](O)CC1 [Compound 598],2.55 µM,2770 nM,10300 nM,4360 nM,
O=C1CCC(C(=O)Nc2ccc(F)c(-c3cn4cc(C5CC5)cnc4n3)c2)C1 (stereo not shown) [Compound 599],3.93 µM,2690 nM,639 nM,3300 nM,
O=C(Nc1ccc(F)c(-c2cn3cc(C4CC4)cnc3n2)c1)C1COCCO1 (stereo not shown) [Compound 600],1.75 µM,1460 nM,> 50000 nM,1780 nM,
CN1CCOC(C(=O)Nc2ccc(F)c(-c3cn4cc(C5CC5)cnc4n3)c2)C1 (stereo not shown) [Compound 601],> 20 µM,> 25000 nM,4040 nM,> 50000 nM,
CC(C)(C)OC(=O)N1CCOC(C(=O)Nc2ccc(F)c(-c3cn4cc(C5CC5)cnc4n3)c2)C1 (stereo not shown) [Compound 602],13.6 µM,> 25000 nM,> 50000 nM,> 50000 nM,
CC(C)(C)OC(=O)N1CCOCC1C(=O)Nc1ccc(F)c(-c2cn3cc(C4CC4)cnc3n2)c1 (stereo not shown) [Compound 603],5.84 µM,17800 nM,12600 nM,8170 nM,
O=C(Nc1ccc(F)c(-c2cn3cc(C4CC4)cnc3n2)c1)N1CC(F)(F)C1 [Compound 604],0.046 µM,22 nM,41 nM,51 nM,
O=C(Nc1ccc(F)c(-c2cn3cc(C4CC4)cnc3n2)c1)N1CC[C@@H](F)C1 [Compound 605],0.016 µM,21 nM,59 nM,13 nM,
[2H]C([2H])([2H])N(C(=O)Nc1ccc(F)c(-c2cn3cc(C4CC4)cnc3n2)c1)C([2H])([2H])[2H] [Compound 606],0.38 µM,545 nM,3200 nM,267 nM,
COc1cnc2nc(-c3cc(NC(=O)c4oc(C)nc4C)ccc3F)cn2c1 [Compound 607],0.437 µM,705 nM,443 nM,1040 nM,
"Cc1nc(C)c(C(=O)Nc2ccc(F)c(-c3cn4cc(OC(C)C)cnc4n3)c2)o1 [Compound 608, N-(4-fluoro-3-(6-isopropoxyimidazo[1,2-a]pyrimidin-2-yl)phenyl)-2,4-dimethyloxazole-5-carboxamide]",0.132 µM,127 nM,456 nM,159 nM,
COC(=O)COc1cnc2nc(-c3cc(NC(=O)c4oc(C)nc4C)ccc3F)cn2c1 [Compound 609],> 20 µM,835 nM,5970 nM,1050 nM,
Cc1nc(C)c(C(=O)Nc2ccc(F)c(-c3cn4cc(OCC5CC5)cnc4n3)c2)o1 [Compound 610],0.109 µM,121 nM,269 nM,150 nM,
Cc1nc(C)c(C(=O)Nc2ccc(F)c(-c3cn4cc(OCc5ccccn5)cnc4n3)c2)o1 [Compound 611],1.13 µM,645 nM,1550 nM,611 nM,
